# Measurements published in US9499599B2, “Composition and methods for stimulating gastrointestinal motility” (Ipsen Pharma S.A.S., priority 2005, dated 2016).
# Non-standard residues stand in square brackets, D forms with d. Residues, ends and D or L forms follow the SMILES beside them. No end group written: not given here. Ala(4-thiazolyl) = N[C@@H](Cc1cscn1)C(=O)O; d2Nal = N[C@H](Cc1ccc2ccccc2c1)C(=O)O; dBta = N[C@H](Cc1csc2ccccc12)C(=O)O; Api = NC1(C(=O)O)CCNCC1; Inp = O=C(O)C1CCNCC1
# Key:
# male Sprague Dawley rats [1] = test: Effect on POI in rat (laparotomy-induced gastric ileus), gastric emptying; type: in vivo; conditions: 3 centimeter laparotomy, administered subcutaneously
# male Sprague Dawley rats [2] = test: In vivo gastric emptying, subcutaneous administration, phenol red meal; design: species or system rat; conditions: fasted rats, injected subcutaneously, varying doses
# Description: The animals were injected subcutaneously with either vehicle or varying doses of native ghrelin or selected ghrelin analogs. After approximately 15 minutes, 1.5 ml of a phenol red marked nutrient meal (0.5 mg/ml phenol red & 1.5% methyl cellulose in whole milk) was administered orally to the rats. […] The residual phenol red in the stomach was extracted and measured by spectrophotometric methods at a wavelength of 560 nm. […] (see Figures)
# male Sprague Dawley rats [3] = test: In vivo gastric emptying, intravenous administration, phenol red meal; design: species or system rat; conditions: fasted anesthetized rats, administered intravenously
# Description: Selected compounds of the invention can be and were tested to determine the effect of the compounds upon gastric emptying. […] Native ghrelin, the selected ghrelin analog and a metoclopramide control compound were administered intravenously to anesthetized test subjects. Approximately five minutes after the initial administration of native ghrelin, the selected ghrelin analog or the control compound, a 1.5 ml meal marked with phenol red (0.5 mg/ml phenol red and 1.5% methyl cellulose in whole milk) was administered to each test subject by esophageal gavage. After approximately an additional 20 minutes, the test subjects were sacrificed by cervical rupture and the stomachs removed and individually pulverized. The residual phenol red in the stomach of the test subjects was extracted and was measured spectrophometrically at a wavelength of 560 nm.
# rats [4] = test: In vivo study on intestinal transit, charcoal meal; design: species or system rat; conditions: fasted anesthetized rats, charcoal meal by esophageal gavage
# Description: In the study, groups of eight rats were fasted for approximately 24 hours with free access to water. Anesthetized test subjects were administered native ghrelin, the selected analog and atropine as a control. The test subjects were administered a 2 ml charcoal meal by esophageal gavage approximately five minutes after the initial administration of ghrelin, the selected analog or atropine. After approximately an additional 25 minutes, the test subjects were sacrificed by cervical rupture and the small intestines were removed. The distance the charcoal traveled was measured from the pylorus.
# rats [5] = conditions: cited from earlier work
# septic mice = conditions: cited from earlier work
# mice = conditions: cited from earlier work
# [6] = target: T1, human recombinant GHS receptor (Homo sapiens, UniProt Q92847); test: GHS-receptor binding assay, (125I)ghrelin displacement; conditions: 0.05 nM (125I)ghrelin, membranes of CHO-K1 cells expressing human recombinant GHS receptor, 60 min at 4° C.
# T1 construct: The full length human GHS-R was subcloned into the mammalian expression vector pcDNA 3.1; expressed in transfected cells; membrane homogenates used
# Description: Membranes for radioligand binding studies can be and were prepared by homogenization of the foregoing CHO-K1 cells expressing the human recombinant GHS receptor. The cells were homogenized in 20 ml of ice-cold 50 mM Tris-HCl using a Brinkman Polytron® (Westbury, N.Y.; setting 6, 15 sec). The homogenates were washed twice by centrifugation (39,000 g/10 min) and the final pellets were resuspended in 50 mM Tris-HCl containing 2.5 mM MgCl2 and 0.1% bovine serum albumin (BSA).
# laparectomized dogs = conditions: cited from earlier work
# Ferrets = conditions: ferrets exposed to cisplatin, intracerebroventricular administration; cited from earlier work
# [7] = tested on: patients with diabetic gastroparesis; conditions: cited from earlier work
# rats [8] = conditions: post-operative ileus model; cited from earlier work
# T1 sequence (Q92847 whole entry): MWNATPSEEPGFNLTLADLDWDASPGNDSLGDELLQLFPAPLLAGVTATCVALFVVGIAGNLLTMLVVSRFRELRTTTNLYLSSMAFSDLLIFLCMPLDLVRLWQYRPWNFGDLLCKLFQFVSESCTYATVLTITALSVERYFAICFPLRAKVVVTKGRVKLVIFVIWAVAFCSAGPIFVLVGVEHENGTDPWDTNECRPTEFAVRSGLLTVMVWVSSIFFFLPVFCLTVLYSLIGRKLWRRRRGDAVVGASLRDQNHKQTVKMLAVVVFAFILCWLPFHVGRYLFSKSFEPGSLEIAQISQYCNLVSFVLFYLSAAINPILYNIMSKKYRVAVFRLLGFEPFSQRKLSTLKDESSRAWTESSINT
Compound,effect on gastric emptying under post-operative ileus conditions (male Sprague Dawley rats [1]),effect on gastric emptying (residual phenol red in stomach) (male Sprague Dawley rats [2]),effect on gastric emptying (residual phenol red in stomach) (male Sprague Dawley rats [3]),effect on intestinal transit (distance the charcoal traveled from the pylorus) (rats [4]),effect on gastric emptying (rats [5]),effect on gastric emptying (septic mice),effect on transit in the small intestine (septic mice),effect on gastric emptying (mice),Ki [6] [nM],further results
"NC(=O)C1(NC(=O)[C@H](Cc2ccccc2)NC(=O)[C@@H](Cc2c[nH]c3ccccc23)NC(=O)[C@@H](Cc2csc3ccccc23)NC(=O)C2CCNCC2)CCNCC1 [Example #19, H-Inp-D-Bal-D-Trp-Phe-Apc-NH2] (H-[Inp][dBta][dW]F[Api]-NH2)",significantly accelerated gastric emptying,accelerated gastric emptying,accelerated gastric emptying,accelerated gastric intestinal transit,–,–,–,–,–,–
His-D-Trp-Ala-Trp-D-Phe-Lys-amide (H[dW]AW[dF]K-NH2) [GHRP-6],–,–,–,–,accelerate gastric emptying,accelerated gastric emptying,little effect upon increasing transit in the small intestine,accelerate gastric emptying,–,–
"NCCCC[C@H](NC(=O)[C@H](Cc1cscn1)NC(=O)[C@@H](Cc1c[nH]c2ccccc12)NC(=O)[C@@H](Cc1ccc2ccccc2c1)NC(=O)C1CCNCC1)C(N)=O [Example #37, H-Inp-D-2-Nal-D-Trp-Taz-Lys-NH2] (H-[Inp][d2Nal][dW][Ala(4-thiazolyl)]K-NH2)",–,–,–,–,–,–,–,–,0.8,–
"NCCCC[C@H](NC(=O)[C@H](Cc1ccccc1)NC(=O)[C@@H](Cc1c[nH]c2ccccc12)NC(=O)[C@@H](Cc1ccc2ccccc2c1)NC(=O)C1CCNCC1)C(N)=O [Example #2, Inp-D-2-Nal-D-Trp-Phe-Lys-NH2] (HELM PEPTIDE1{[O=C(C1CCNCC1)[*:2]].[O=C([C@@H](Cc1ccc2ccccc2c1)N[*:1])[*:2]].[dW].F.K.[am]}$$$$V2.0)",–,–,–,–,–,–,–,–,0.3,–
"H-Gly-Ser-Ser-Phe-Leu-Ser-Pro-Glu-His-Gln-Arg-Val-Gln-Gln-Arg-Lys-Glu-Ser-Lys-Lys-Pro-Pro-Ala-Lys-Leu-Gln-Pro-Arg-NH2 (H-GSSFLSPEHQRVQQRKESKKPPAKLQPR-NH2) [ghrelin, orexigenic hormone, native ligand for the GHS receptor]",significantly accelerated gastric emptying,accelerated gastric emptying,accelerated gastric emptying,accelerated gastric intestinal transit,accelerate gastric emptying,accelerated gastric emptying,little effect upon increasing transit in the small intestine,accelerate gastric emptying,–,effect on POI (laparectomized dogs): improve POI; occurrences of retching and vomiting (Ferrets): significantly reduced occurrences of retching and vomiting; effect on gastric emptying [7]: increase gastric emptying; effect on delay of gastric emptying (rats [8]): reverse the delay of gastric emptying
